Several values for one entry are separate records, joined by “and”; a condition that tells them apart may be missing. Equal values may be shown once. Activity calls are given as the source filed them.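 The calls were made as follows: active = compounds giving half or more protection of infected cells from virus-caused growth loss, again on retest; inactive = the rest.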 Where a SMILES comes first, the peptide text is derived from it. The star is where a group is joined. Cbz = O=C(OCc1ccccc1)*
Tested on: CEM cells HIV-1 protection, formazan growth assay
Experiment: NCI AIDS Antiviral Assay
Conditions: for IC50: measured here: growth of uninfected CEM cells
How it was run: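 Protection of CEM cells against HIV-1 was scored from cell growth (soluble formazan) across five concentrations, with parallel uninfected cells. Lack of protection may reflect toxicity.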

| SMILES | EC50 [µM] | IC50 | outcome |
| --- | --- | --- | --- |
| O=C(CN1CCOCC1)c1ccc2c(c1)oc(=O)n2CCN1CCOCC1 | > 200 | > 200 µM | – |
| CCOC(=O)CCC(NC(=O)C(CC(=O)OC)NC(=O)OCc1ccccc1)C(=O)NC(CC(=O)OC)C(=O)NC(CCC(=O)OCC)C(=O)NC(CC(=O)OC)C(=O)NC(CCC(=O)OCC)C(=O)NC(CC(=O)OC)C(=O)NC(CCC(=O)OCC)C(=O)NC(CC(=O)OC)C(=O)NC(CCC(=O)OCC)C(=O)NC(CC(=O)OCC)C(=O)OCC (configuration not stated) (Cbz-D(OMe)E(OEt)D(OMe)E(OEt)D(OMe)E(OEt)D(OMe)E(OEt)D(OMe)E(OEt)D(OEt)-OEt; configuration not given here) | > 50.1 | > 50.1 µM | – |
| CCOC(=O)[C@@H]1OC(c2ccccc2)O[C@H]1C(=O)OCC | > 200 | > 200 µM | – |
| CC(C)(C)OC(=O)C1C(=O)C(C(=O)OC(C)(C)C)C23CCCCCCCCCCC12C(C(=O)OC(C)(C)C)C(=O)C3C(=O)OC(C)(C)C (configuration not stated) | > 18.6 | > 18.6 µM | – |
| OCCN(CCO)CCn1cnc2c(NCc3ccccc3)ncnc21 | > 200 | > 200 µM | – |
| C=C(C)CCC[C@@H](C)C1CCC2(C)[C@@H]3CCC4C(C)(C)[C@@H](O)CC[C@@]45C[C@@]35CC[C@]12C (some centres not stated) | > 200 | 46.8 µM | – |
| CCOC(=O)c1ccc(CSc2ccccc2)c([N+](=O)[O-])c1 | > 58.9 | > 58.9 µM | – |
| CN(C)CCCNC(=O)c1nc(NC(=O)c2nc(NC(=O)c3nc(NC(=O)c4ccc(C(=O)Nc5cn(C)c(C(=O)Nc6cn(C)c(C(=O)Nc7cn(C)c(C(=O)NCCCN(C)C)n7)n6)n5)nc4)cn3C)cn2C)cn1C | > 50.1 | > 50.1 µM | – |
| ClCCCc1ccccc1C1=NCCc2ccccc21 | > 200 | 5.25 µM | – |
| CCOC(=O)Nn1c(C)nnc1CC#N | > 200 | > 200 µM | – |
| Cc1cc2c(=O)c3ccc(Cl)cc3[nH]c2c(C(=O)O)c1C | – | – | inactive |
| Cc1cc(Cl)ccc1NC(=O)C(=O)Cc1occc(=O)c1O | > 295 | > 295 µM | – |
| CCOP(=O)(OCC)OCCOCCOP(=O)(OCC)OCC | > 200 | > 200 µM | – |
| CC(C)CCCC(C)C1CCC2C3CC[C@H]4C[C@@H](CCC=C(c5cc(Cl)c(OCc6cccc(B7OC(C)(C)C(C)(C)O7)c6)c(C(=O)OCc6cccc(B7OC(C)(C)C(C)(C)O7)c6)c5)c5cc(Cl)c(OCc6cccc(B7OC(C)(C)C(C)(C)O7)c6)c(C(=O)OCc6cccc(B7OC(C)(C)C(C)(C)O7)c6)c5)CC[C@]4(C)C3CC[C@]12C (some centres not stated) | > 50.1 | > 50.1 µM | – |
| O=C(N/N=C\c1ccco1)c1ccncc1 | > 200 | > 200 µM | – |
| CC1NC(=O)C2=C1C(N)=NC(=O)C2 (configuration not stated) | > 1000 | > 1000 µM | – |
| CC(=O)SC(SC(C)=O)SC(C)=O | > 209 | 155 µM | – |
| c1ccc(N2N=NC3CCCC32)cc1 (configuration not stated) | > 200 | 95.5 µM | – |
| c1ccc2c(c1)ccn2CCc1c[nH]c2ccccc12 | > 200 | > 200 µM | – |
| CCCCCCCCOCC(O)COC(=O)CCCCCCC (configuration not stated) | > 251 | 20.9 µM | – |
| Cn1c(=O)sc2cc(C(=S)N3CCN(c4ccccc4)CC3)ccc21 | 87.1 | 107 µM | – |

| SMILES | EC50 [µM] | IC50 | outcome |
| --- | --- | --- | --- |
| CC1=C/C(=C(\c2ccc(N(C)C)cc2)c2ccc([N+](C)(C)C)cc2)C=CC1=[N+](C)C | – | – | inactive |
| CC(=O)NS(=O)(=O)c1ccc(NC(=O)c2ccccc2SC(=O)CCCCBr)cc1 | 12.3 | 148 µM | – |
| COc1ccc(C/C=C(\C)CCO)cc1 | > 200 | 126 µM | – |
| CCOC(=O)Cc1[nH]c(C(=O)c2ccccc2)cc1C(=O)c1ccccc1 | > 200 | 30.2 µM | – |
| CC1CC(C)(C)N=C(CCC[N+](=O)[O-])O1 (configuration not stated) | > 200 | > 200 µM | – |
| O=C1Nc2cnc(Cl)nc2Nc2cc(Cl)ccc21 | > 200 | > 200 µM | – |
| CC1=CC(C)(C)N=C2SC(c3ccc(N)cc3)=NN12 | > 251 | 2 µM | – |
| Cc1ccc(C2=C(c3ccccc3)C(Br)(c3ccccc3)C(c3ccccc3)=C2c2ccc(C)cc2)cc1 | > 26.9 | > 26.9 µM | – |
| COc1ccc(NC(=O)COC(=O)c2cccc3c(=O)c4ccccc4[nH]c23)cc1 | – | – | inactive |
| COc1ccc(N2C(=O)C(=O)C3(CCCCC3)C2=O)c(OC)c1OC | > 200 | > 200 µM | – |
| Clc1ccc(SCCSCCCCCCCCCCSCCSc2ccc(Cl)cc2)cc1 | > 9.55 | > 9.55 µM | – |
| COC(=O)/C=C\C(C#N)(C#N)N=Cc1ccc(Br)cc1 | > 20 | 1.02 µM | – |
| CC12CCC(C(Nc3cc(C(F)(F)F)cc(C(F)(F)F)c3)C1=O)C2(C)C (configuration not stated) | > 200 | > 200 µM | – |
| CN(C)c1ccc(/C=C(\NC(=O)c2ccccc2)C(=O)NC(CC(=O)O)C(=O)O)cc1 (configuration not stated) | – | – | inactive |
| CN1CCN(C)C(=O)CSSCC1=O | > 151 | > 151 µM | – |
| C(#CP(c1ccccc1)c1ccccc1)P(C#CP(c1ccccc1)c1ccccc1)c1ccccc1 | – | – | inactive |
| O=C1CC2(CCN(CC3COc4ccccc4O3)CC2)C(=O)N1N1CCCCCC1 (configuration not stated) | > 200 | 72.4 µM | – |
| CCOC(=O)NC(Nc1cccc(F)c1)(C(F)(F)F)C(F)(F)F | > 200 | > 200 µM | – |
| O=S(=O)(O)c1ccc(NN(c2c(O)ccc3ccccc23)S(=O)(=O)O)cc1 | > 550 | 229 µM | – |
| O=c1c(Cl)c(Cl)cnn1-c1ccccc1 | > 126 | 0.288 µM and 2.63 µM | – |

Reference: PubChem BioAssay AID179 (DTP/NCI, 2004)
